The results in this text go back to US12171756B2, “NLRP3 modulators” (Innate Tumor Immunity, Inc., priority 2017, dated 2024).

The test system of experiment [1] is IL-1β production in PMA-differentiated THP-1 cells. In words: Measurement of IL-1β production in PMA-differentiated THP-1 cells (ELISA, 4 hours). The format is cell-based, human. The settings on record: Homo sapiens, THP-1, human IL-1β production, assayed using one or more of the described procedures, read-out: NLRP3 hIL1B IC50. The gist of the method: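 IL-1β released into supernatant was measured by ELISA after a 4-hour compound exposure (final DMSO 1%, concentrations such as 100 down to 0.1 μM). Cells: THP-1 pretreated 24 h with 10 μg/ml PMA, then trypsinized and seeded at 1×10^6/ml in 2% FBS RPMI.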
In general terms: ELISA stands for enzyme-linked immunosorbent assay.

Another experiment addresses T1, human TLR7 (Homo sapiens, UniProt Q9NYK1).
T1 construct: host or cells: human HEK-Blue cells (HEK293-derived) co-expressing TLR7 and an NF-kB/AP1-inducible SEAP reporter
T1 sequence (Q9NYK1 27-1049): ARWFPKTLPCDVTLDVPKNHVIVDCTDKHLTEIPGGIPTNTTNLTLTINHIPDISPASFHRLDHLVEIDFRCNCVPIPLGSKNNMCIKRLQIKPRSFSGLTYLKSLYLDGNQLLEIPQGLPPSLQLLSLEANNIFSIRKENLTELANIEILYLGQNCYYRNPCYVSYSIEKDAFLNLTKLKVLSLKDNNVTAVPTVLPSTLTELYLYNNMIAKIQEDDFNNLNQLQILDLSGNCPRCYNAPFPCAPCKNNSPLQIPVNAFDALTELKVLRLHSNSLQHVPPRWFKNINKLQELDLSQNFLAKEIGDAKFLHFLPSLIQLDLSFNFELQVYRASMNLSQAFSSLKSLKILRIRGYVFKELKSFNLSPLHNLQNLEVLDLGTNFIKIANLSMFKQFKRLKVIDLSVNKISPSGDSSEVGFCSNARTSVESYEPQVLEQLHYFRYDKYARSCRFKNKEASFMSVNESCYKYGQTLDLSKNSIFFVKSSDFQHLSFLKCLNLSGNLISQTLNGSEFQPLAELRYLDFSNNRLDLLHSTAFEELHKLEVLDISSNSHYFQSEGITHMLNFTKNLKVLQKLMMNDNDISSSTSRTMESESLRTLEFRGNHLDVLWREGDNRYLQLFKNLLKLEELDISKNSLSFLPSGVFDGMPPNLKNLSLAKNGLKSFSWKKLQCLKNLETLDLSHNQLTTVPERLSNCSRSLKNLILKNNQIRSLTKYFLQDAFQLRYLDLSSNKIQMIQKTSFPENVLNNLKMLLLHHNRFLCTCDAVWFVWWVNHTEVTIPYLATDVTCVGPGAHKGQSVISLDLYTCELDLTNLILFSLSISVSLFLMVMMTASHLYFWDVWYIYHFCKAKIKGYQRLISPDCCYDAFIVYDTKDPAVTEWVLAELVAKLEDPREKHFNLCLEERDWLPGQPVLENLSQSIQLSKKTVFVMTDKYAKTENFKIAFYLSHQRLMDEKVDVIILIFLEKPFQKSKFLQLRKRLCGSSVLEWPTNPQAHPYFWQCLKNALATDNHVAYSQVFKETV
Nature of the experiment: In vitro human TLR7 binding reporter assay (HEK-Blue, NF-kB/AP1-inducible SEAP). The format is cell-based. The settings on record: HEK-Blue human TLR7 SEAP reporter cells; activity range classes; read-out: TLR7 Agonist EC50. In outline: (§1)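 HEK-Blue cells expressing human TLR7 or TLR8 with NF-kB/AP1-inducible SEAP reporter, plated 24 h, then compound-treated 18 h at 37° C, 5% CO2. EC50 normalized to 100% Ymax set by 50 μM reference standard.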

A further experiment addresses T2, human TLR8 (Homo sapiens, UniProt Q9NR97).
T2 construct: host or cells: human HEK-Blue cells (HEK293-derived) co-expressing TLR8 and an NF-kB/AP1-inducible SEAP reporter
T2 sequence (Q9NR97 27-1041): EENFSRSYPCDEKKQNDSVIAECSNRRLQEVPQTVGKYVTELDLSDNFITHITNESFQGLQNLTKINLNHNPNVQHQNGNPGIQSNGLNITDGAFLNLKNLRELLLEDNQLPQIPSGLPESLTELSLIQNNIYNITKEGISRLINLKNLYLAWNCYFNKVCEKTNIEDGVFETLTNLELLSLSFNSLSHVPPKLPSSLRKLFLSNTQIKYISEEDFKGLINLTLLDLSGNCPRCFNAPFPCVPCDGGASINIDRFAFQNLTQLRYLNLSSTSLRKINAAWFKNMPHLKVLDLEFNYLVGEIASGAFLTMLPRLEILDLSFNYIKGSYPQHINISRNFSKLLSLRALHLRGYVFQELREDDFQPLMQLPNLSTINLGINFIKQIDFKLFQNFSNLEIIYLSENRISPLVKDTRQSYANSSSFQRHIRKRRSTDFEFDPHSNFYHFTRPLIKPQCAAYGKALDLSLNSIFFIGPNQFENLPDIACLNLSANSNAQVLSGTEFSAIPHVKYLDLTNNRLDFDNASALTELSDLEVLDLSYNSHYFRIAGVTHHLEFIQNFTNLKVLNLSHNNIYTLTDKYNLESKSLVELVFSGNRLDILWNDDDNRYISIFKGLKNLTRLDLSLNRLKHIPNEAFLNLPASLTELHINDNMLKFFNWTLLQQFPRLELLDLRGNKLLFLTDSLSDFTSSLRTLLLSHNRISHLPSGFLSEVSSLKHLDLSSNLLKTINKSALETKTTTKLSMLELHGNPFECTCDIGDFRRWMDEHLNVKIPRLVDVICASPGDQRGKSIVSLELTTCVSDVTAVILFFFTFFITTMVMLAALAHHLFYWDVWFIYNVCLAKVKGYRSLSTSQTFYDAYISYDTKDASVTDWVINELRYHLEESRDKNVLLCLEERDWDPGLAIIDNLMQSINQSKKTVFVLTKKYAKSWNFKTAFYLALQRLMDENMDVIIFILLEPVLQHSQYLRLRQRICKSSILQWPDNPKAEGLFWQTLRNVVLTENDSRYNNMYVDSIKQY
In words: In vitro human TLR8 binding reporter assay (HEK-Blue, NF-kB/AP1-inducible SEAP). The format is cell-based. The settings on record: HEK-Blue human TLR8 SEAP reporter cells; activity range classes; read-out: TLR8 Agonist EC50. In outline: as §1
A general note: A reporter such as luciferase makes a cellular process visible.

What is called IC50 is the concentration that gives 50% inhibition. The term EC50 denotes the midpoint of the concentration-response curve.

SMILES strings stand for the structures.

`Nc1cc(NCCn2ccnc2)c2ccc(-c3ccn[nH]3)cc2n1` [Compound 152]: in experiment [1], the IC50 came to 1.03 µM. The EC50 at human TLR7 and at human TLR8 was over 100 µM throughout.
For the compound `Nc1cc(NCc2ncccn2)c2ccc(-c3ccn[nH]3)cc2n1` [Compound 316, 7-(1H-pyrazol-5-yl)-N4-(pyrimidin-2-ylmethyl)quinoline-2,4-diamine], the IC50 in experiment [1] was determined as 0.56 µM. The EC50 on human TLR7 and on human TLR8 was over 100 µM in each case.
For the compound `CN(C)c1cc(N)nc2cc(-c3ccn[nH]3)ccc12` [Compound 166], the IC50 in experiment [1] was 0.56 µM. Besides, the EC50 at human TLR7 and on human TLR8 was over 100 µM in each case.
Take `Nc1cc(NCC2COCCO2)c2ccc(-c3ccn[nH]3)cc2n1` (stereo not drawn) [Compound 266]: the 50% inhibitory concentration (IC50) in experiment [1] is 0.39 µM. The concentration giving a half-maximal response (EC50) at human TLR7 and at human TLR8 was over 100 µM in each case.
